# According to article PMC10458471, “Electrophysiological Assessment of Newly Synthesized 2,3-Benzodiazepine Derivatives for Inhibiting the AMPA Receptor Channel” (Molecules, 2023):
# Where two headings read alike, the source gives them in different places.
# Tests used:
# [1] = target: T1, GluA1 (Rattus norvegicus, UniProt P19490); assay: Whole-cell patch-clamp recording of homomeric GluA1 AMPAR expressed in HEK293T cells; type: cell-based
# T1 construct: expressed in transfected cells; host or cells: HEK293T
# Procedure: (§1) For the DNA preparation, the QIAGEN Plasmid Mini Kit was used to prepare up to 20 µg of high-copy plasmid DNA [30]. All AMPAR subunits utilized in this study included the flip isoform received from S. F. Heinemann (Salk Institute, La Jolla, CA, USA) and sub-cloned in pRK for expression in Human Embryonic Kidney Cells 293 (HEK293T). The human embryonic kidney (HEK293T) cells were obtained from Sigma, Taufkirchen, Germany, and we only used the HEK293T cell line due to their ease of growth and transfection and wide utilization in cell culture. For the transfection, we used the constructs GluA1, GluA2, GluA2/3, and GluA1/2, along with the GFP-expressing construct, as described in our previous work. The transfection reagents utilized were jetPRIME (Polyplus: New York, NY, USA) or Lipofectamine 2000 (Invitrogen; San Diego, CA, USA). The highly fluorescent cells were identified and selected for recording. The selected cells were seeded in Dulbecco Modified Eagle Medium (DMEM) (Sigma, Roedermark, Germany) containing 10% FBS, 0.1 mg/mL streptomycin, and 1 mM sodium pyruvate (Biological Industries; Beit-Haemek, Israel). The cells were incubated at 37 °C with 5% CO2 added to the medium and subcultured twice a week until they reached passage #20. Following a day and a half, the cells were replated on coverslips covered with Laminin (1 mg/mL; Sigma, Roedermark, Germany) for electrophysiological recordings. Our previous work has detailed the DNA preparation, cDNA transient transfection, and cell culture of HEK293T [30, 31, 32, 33].
# (§2) After that, a patch was placed in front of a rapid perfusion system comprised of a theta tube flow pipe mounted on a piezoelectric translator that was used to wash the cell continuously from one barrel while the other supplied the compound of interest to the cell. Recordings were conducted 36–48 h after transfection at 22 °C, with a membrane potential of −60 mV. Currents were amplified using an integrated patch amplifier (IPA, Sutter Instruments, Novato, CA, USA), filtered at 2 kHz, and digitized at 10 kHz using SutterPatch Software v. 1.1.1 [46]. […] The extracellular medium contained (in mM): 150 NaCl, 2.8 KCl, 0.5 MgCl2, 2 CaCl2, and 10 HEPES, pH 7.4 adjusted with NaOH. The holding potential was typically −60 mV. The sample size was determined to be eight viable cells to calculate the mean inhibition of the derivative of interest. The solution exchange time (10–90% to peak) was estimated at […] using open-tip control at the end of a recording. Inhibition was calculated by comparing the current observed when the cell was supplied with glutamate alone and when the same cell was supplied with both glutamate and the 2,3-BDZ compounds. The initial tube containing only glutamate was reintroduced to the cell to ensure cellular safety and authenticate the antagonist’s findings. This step ensured that the glutamate-induced current observed before the administration of the antagonist was nearly indistinguishable from the current observed after administration.
# (§3) The experiment served two purposes: first, determining the whole-cell current amplitude ratio in the absence and presence of the compounds (A/AI) to derive a constant inhibitory value independent of the rate measurement. Second, as an independent control method, a fast exchange solution flow methodology was employed using piezoelectric actuators, providing the fastest exchange solution with open-tip current rise times in the 100–300 μs range to assess the amplitude of the whole-cell current. Detailed data analysis of this process is provided in the supporting information (Tables S1–S4).
# (§4) The data acquired were analyzed using Igor Pro7 (Wave Metrics, Inc., Portland, OR, USA). Receptor desensitization (τw des) and deactivation rates were estimated by fitting the current decay starting from 95% of the peak to the baseline current using a double exponential formulation. […]
# [2] = target: T2, GluA1/2 (Rattus norvegicus, UniProt P19490+P19491); assay: Whole-cell patch-clamp recording of heteromeric GluA1/2 AMPAR expressed in HEK293T cells; type: cell-based
# T2 construct: expressed in transfected cells; host or cells: HEK293T
# Procedure: as §1, §2, §3, §4
# [3] = target: T3, GluA2 (Rattus norvegicus, UniProt P19491); assay: Whole-cell patch-clamp recording of homomeric GluA2 AMPAR expressed in HEK293T cells; type: cell-based
# T3 construct: expressed in transfected cells; host or cells: HEK293T
# Procedure: as §1, §2, §3, §4
# [4] = target: T4, GluA2/3 (Rattus norvegicus, UniProt P19491+P19492); assay: Whole-cell patch-clamp recording of heteromeric GluA2/3 AMPAR expressed in HEK293T cells; type: cell-based
# T4 construct: expressed in transfected cells; host or cells: HEK293T
# Procedure: as §1, §2, §3, §4
# [5] = tested on: AMPA receptor subunits; assay: Whole-cell patch-clamp recording, statements over all tested AMPAR subunits (GluA1, GluA1/2, GluA2, GluA2/3) in HEK293T cells; type: cell-based; conditions: 16 µM compound
# Procedure: as §1, §2, §3, §4
# [6] = 10 mM glutamate + 16 µM compound, -60 mV, pH 7.4, 22 °C, mean±SEM, n=8
# [7] = 10 mM glutamate, 16 µM compound, n=8
# [8] = 1 ms 10 mM glutamate + 16 µM compound, n=8
# [9] = 500 ms 10 mM glutamate + 16 µM compound, n=8
# [10] = log of IC50, read-out: Log IC50 (converted)
# [11] = normalized peak current, -60 mV, pH 7.4, 22 °C, read-out: IC50
# [12] = washout/recovery, glutamate alone after compound, n=8
# T1 sequence (P19490 19-907 isoform P19490-2 limits assumed): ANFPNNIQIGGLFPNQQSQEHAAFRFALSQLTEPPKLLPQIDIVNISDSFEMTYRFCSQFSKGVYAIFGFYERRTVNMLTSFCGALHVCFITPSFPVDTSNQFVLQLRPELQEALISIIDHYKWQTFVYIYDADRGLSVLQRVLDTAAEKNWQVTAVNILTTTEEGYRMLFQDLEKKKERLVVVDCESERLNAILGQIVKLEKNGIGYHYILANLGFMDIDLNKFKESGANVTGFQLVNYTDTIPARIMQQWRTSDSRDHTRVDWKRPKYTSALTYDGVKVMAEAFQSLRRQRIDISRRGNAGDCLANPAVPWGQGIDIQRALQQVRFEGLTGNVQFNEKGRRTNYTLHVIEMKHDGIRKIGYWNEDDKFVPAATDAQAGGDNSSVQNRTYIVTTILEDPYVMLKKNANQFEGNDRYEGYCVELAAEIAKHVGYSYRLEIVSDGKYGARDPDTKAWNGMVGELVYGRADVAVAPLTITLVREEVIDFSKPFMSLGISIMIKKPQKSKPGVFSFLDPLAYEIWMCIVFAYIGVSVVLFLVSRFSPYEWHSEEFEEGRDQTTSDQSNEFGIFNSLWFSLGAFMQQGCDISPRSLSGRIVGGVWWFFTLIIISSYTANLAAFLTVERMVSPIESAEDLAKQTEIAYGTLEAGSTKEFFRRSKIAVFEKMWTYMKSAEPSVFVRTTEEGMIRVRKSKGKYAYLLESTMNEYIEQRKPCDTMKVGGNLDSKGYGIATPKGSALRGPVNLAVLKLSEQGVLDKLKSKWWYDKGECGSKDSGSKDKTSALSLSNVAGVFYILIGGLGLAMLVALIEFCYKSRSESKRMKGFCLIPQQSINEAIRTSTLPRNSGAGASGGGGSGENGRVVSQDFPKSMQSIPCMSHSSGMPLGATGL
# T2 sequence (P19490 19-907 isoform P19490-2 limits assumed): as above
# T2 sequence (P19491 22-883 isoform P19491-2 limits assumed): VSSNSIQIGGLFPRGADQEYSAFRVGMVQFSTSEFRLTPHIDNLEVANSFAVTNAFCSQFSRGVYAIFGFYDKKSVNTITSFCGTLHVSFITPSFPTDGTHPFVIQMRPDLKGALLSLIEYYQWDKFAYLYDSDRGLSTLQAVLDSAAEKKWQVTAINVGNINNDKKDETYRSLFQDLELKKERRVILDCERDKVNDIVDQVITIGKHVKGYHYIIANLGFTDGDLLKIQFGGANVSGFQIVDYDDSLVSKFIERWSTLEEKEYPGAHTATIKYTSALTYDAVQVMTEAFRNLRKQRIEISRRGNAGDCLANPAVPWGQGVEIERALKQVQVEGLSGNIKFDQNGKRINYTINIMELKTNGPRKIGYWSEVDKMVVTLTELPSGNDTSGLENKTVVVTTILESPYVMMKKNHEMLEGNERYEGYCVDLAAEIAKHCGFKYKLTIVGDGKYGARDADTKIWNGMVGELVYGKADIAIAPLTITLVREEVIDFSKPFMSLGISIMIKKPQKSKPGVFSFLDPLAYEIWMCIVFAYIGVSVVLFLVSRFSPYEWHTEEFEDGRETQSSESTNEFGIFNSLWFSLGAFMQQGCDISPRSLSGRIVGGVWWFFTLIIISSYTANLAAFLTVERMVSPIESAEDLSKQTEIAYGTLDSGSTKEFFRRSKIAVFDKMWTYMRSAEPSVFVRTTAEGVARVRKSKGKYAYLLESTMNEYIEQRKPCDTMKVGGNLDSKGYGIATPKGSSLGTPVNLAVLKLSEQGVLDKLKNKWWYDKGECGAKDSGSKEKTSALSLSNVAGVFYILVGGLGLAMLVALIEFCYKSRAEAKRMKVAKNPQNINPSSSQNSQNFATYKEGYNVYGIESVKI
# T4 sequence (P19491 22-883 isoform P19491-2 limits assumed): as above
# T4 sequence (P19492 23-888 isoform P19492-2 limits assumed): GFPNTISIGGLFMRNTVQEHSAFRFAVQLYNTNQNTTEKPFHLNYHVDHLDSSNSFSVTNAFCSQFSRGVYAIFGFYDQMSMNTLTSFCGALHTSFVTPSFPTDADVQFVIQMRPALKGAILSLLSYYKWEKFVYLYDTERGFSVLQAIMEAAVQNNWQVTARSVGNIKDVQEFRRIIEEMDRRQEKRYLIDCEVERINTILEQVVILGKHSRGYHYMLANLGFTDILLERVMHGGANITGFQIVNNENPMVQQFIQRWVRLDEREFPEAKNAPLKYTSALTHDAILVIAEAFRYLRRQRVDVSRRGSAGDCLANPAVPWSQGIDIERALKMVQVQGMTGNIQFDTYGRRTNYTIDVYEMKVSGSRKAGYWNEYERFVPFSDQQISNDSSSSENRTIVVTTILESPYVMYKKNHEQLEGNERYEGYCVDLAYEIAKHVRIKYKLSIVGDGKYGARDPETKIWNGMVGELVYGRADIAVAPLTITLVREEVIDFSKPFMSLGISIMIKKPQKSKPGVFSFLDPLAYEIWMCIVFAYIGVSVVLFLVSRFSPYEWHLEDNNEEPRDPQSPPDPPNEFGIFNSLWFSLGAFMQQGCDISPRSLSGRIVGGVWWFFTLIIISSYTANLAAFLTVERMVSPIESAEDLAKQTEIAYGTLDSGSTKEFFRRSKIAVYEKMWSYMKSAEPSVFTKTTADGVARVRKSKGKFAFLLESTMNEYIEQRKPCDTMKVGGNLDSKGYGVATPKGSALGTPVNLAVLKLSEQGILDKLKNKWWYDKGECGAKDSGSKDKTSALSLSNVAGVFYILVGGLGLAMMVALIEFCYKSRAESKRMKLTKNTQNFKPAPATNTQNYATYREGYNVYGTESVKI
# T3 sequence (P19491 22-883 isoform P19491-2 limits assumed): as the sequence (P19491 22-883 isoform P19491-2 limits assumed) above
smiles,measurement,setting,value
"O=C1Cc2cc3c(cc2C(c2ccc([N+](=O)[O-])cc2F)=NN1)OCO3 [2,3-BDZ-3]",Amplitude with compound,[1]; [6],237±12 pA
same,A/AI (current amplitude ratio without/with compound),[1]; [7],3.94±0.2
same,t deact (weighted deactivation time constant),[1]; [8],2.4 ± 0.1 ms
same,t des (weighted desensitization time constant),[1]; [9],2.1 ± 0.1 ms
same,IC50,[1]; [10],5.75 µM
same,IC50,[1]; [11],5.8 µM
same,"Amplitude, applying glutamate alone after compound",[1]; [12],936±46 pA
same,Amplitude with compound,[2]; [6],144±11 pA
same,A/AI (current amplitude ratio without/with compound),[2]; [7],3.98±0.2
same,t deact (weighted deactivation time constant),[2]; [8],2.8 ± 0.2 ms
same,t des (weighted desensitization time constant),[2]; [9],4.9 ± 0.3 ms
same,IC50,[2]; [10],5.75 µM
same,IC50,[2]; [11],5.79 µM
same,"Amplitude, applying glutamate alone after compound",[2]; [12],569±43 pA
same,Amplitude with compound,[3]; [6],326±17 pA
same,A/AI (current amplitude ratio without/with compound),[3]; [7],4.16±0.2
same,t deact (weighted deactivation time constant),[3]; [8],2.8 ± 0.1 ms
same,t des (weighted desensitization time constant),[3]; [9],2.3 ± 0.1 ms
same,IC50,[3]; [10],5.75 µM
same,IC50,[3]; [11],5.74 µM
same,Amplitude with compound,[4]; [6],130±12 pA
same,A/AI (current amplitude ratio without/with compound),[4]; [7],4.08±0.3
same,t deact (weighted deactivation time constant),[4]; [8],2.9 ± 0.2 ms
same,t des (weighted desensitization time constant),[4]; [9],2.5 ± 0.2 ms
same,IC50,[4]; [10],5.75 µM
same,IC50,[4]; [11],5.76 µM
same,"Amplitude, applying glutamate alone after compound",[4]; [12],525±22 pA
same,Effect on desensitization rate,[5],no change
same,Reduction in AMPAR subunit currents,[5],4 fold
same,Effect on deactivation rate of the AMPAR subunits examined,[5]; 1 ms glutamate,no change
same,melting point,,182 to 184 °C
